# What was measured:
# Assay type in all cases: physicochemical
# [1] = Absorption strength (absorption spectrum in ethanol); conditions: for λmax: absorption maximum, dilute solution; for λmax / Half-value width / intense absorption up to / spectral range covered compared with curcumin and beta-carotene: in ethanol; for E1 % value: extinction at the absorption maximum extrapolated to a concentration of 1 g/100 ml, ethanol; for Half-value width: half-value width of the absorption band
# Experimental: The measure used for the absorption strength is the so-called E1% value, and the half-value width of the absorption band in relation to the absorption maximum λmax indicated. The E1% value indicates the extinction at the absorption maximum extrapolated to a concentration of 1 g/100 ml. To this end, an absorption spectrum of the substance in ethanol is recorded in dilute solution. The values are compared with the reference spectra of curcumin and beta-carotene.
# [2] = Solubility determination in phenethyl benzoate (X-Tend 226)
# Experimental: The solubility determination was carried out in phenethyl benzoate (X-Tend 226): […]
# [3] = Thermal stability by thermographic method (TGA); conditions: for Temperature at which 98% of the weight was still present: TGA, RT to 800° C., heating rate 10 K/min
# Experimental: The thermal stability is determined with the aid of the thermographic method (instrument TGA Q5000 V3.10 Build 258, temperature range RT to 800° C., heating rate 10 K/min).
# [4] = Fluorescence measurements in ethanol; conditions: 0.00804-0.00820 mg/ml, cell thickness 1 cm
# Experimental: The substance concentrations in ethanol indicated in the table are measured using an Aminco Bowman 2 fluorescence spectrometer (cell thickness 1 cm; excitation 220-600 nm; emission 220-800 nm; spectral gap width (excitation) 4 nm, (emission) 8 nm; recording speed 10 nm/min; step width (excitation) 5 nm, (emission) 4 nm.
Compound,λmax [1] [nm],E1 % value [1],Half-value width [1],intense absorption up to [1],spectral range covered compared with curcumin and beta-carotene [1],Solubility in X-Tend 226 [2] [%],thermal stability (in words) [3],Temperature at which 98% of the weight was still present [3] [°C],Emission [4] [nm],Excitation [4] [nm]
"CCCCN(CCCC)c1ccc(/C=C2\Oc3ccc(C)cc3O/C(=C\c3ccc(N(CCCC)CCCC)cc3)C2=O)cc1 [Example 8, 7-methyl-2,4-bis[1-(4-dibutylaminophenyl)meth-(Z)-ylidene]benzo[b]-1,4-dioxepin-3-one]",484,571,approx. 122 nm,up to 609 nm,significantly greater spectral range,5.0,excellent,250,320,260
"COc1cc(/C=C/C(=O)CC(=O)/C=C/c2ccc(O)c(OC)c2)ccc1O [Curcumin, curcumin, reference compound]",426,1507,approx. 78 nm,–,–,–,not thermally stable,223,–,–
"COc1cc(OC)c(OC)cc1/C=C1\Oc2ccc(C)cc2O/C(=C\c2cc(OC)c(OC)cc2OC)C1=O [Example 1, 7-methyl-2,4-bis[1-(2,4,5-trimethoxyphenyl)meth-(Z)-ylidene]benzo[b]-1,4-dioxepin-3-one]",437,505,approx. 102 nm,up to 539 nm,significantly greater spectral range,2.2,excellent,281,412,–
"CC1=C(/C=C/C(C)=C/C=C/C(C)=C/C=C/C=C(C)/C=C/C=C(C)/C=C/C2=C(C)CCCC2(C)C)C(C)(C)CCC1 [Beta-carotene, beta-carotene, reference compound]",453,408,approx. 88 nm,–,–,–,–,84,–,–
"COc1ccc(/C=C2\Oc3ccc(C)cc3O/C(=C\c3ccc(OC)cc3)C2=O)cc1 [Example 2, 2,4-bis[1-(4-methoxyphenyl)meth-(Z)-ylidene]-7-methylbenzo[b]-1,4-dioxepin-3-one]",–,–,–,up to 478 nm,–,–,–,–,–,–
"COc1ccc(/C=C2\Oc3ccc(C)cc3O/C(=C\c3ccc(OC)c(OC)c3)C2=O)cc1OC [Example 3, 2,4-bis[1-(3,4-dimethoxyphenyl)-meth-(Z)-ylidene]-7-methylbenzo[b]-1,4-dioxepin-3-one]",369,515,approx. 100 nm,–,significantly greater spectral range,4.5,excellent,286,322,230
